{
  "source": "ChEMBL document CHEMBL3045784",
  "about": "“Effects of oleic acid on the tissue factor activity, blood lipids, antioxidant and oxidant parameters of streptozotocin induced diabetic rats fed a high-cholesterol diet” (Med Chem Res, 2010)",
  "key": {"Rattus norvegicus [1]": {"system": "Rattus norvegicus", "experiment": "Antihyperlipidemic activity in Rattus norvegicus Wistar (rat) diabetic-hyperlipidemic model assessed as serum total lipid level at 10.91% administered through feeding measured after 12 weeks ( Rvb = 922.25 +/- 41.78 mg/dl)", "format": "functional"}, "Rattus norvegicus [2]": {"system": "Rattus norvegicus", "experiment": "Anticoagulant activity in Rattus norvegicus Wistar (rat) diabetic-hyperlipidemic model assessed as prothombin time at 10.91% administered through feeding measured after 12 weeks (reference value: 14.69 +/- 0.8 secs)", "format": "functional"}, "Rattus norvegicus [3]": {"system": "Rattus norvegicus", "experiment": "Anticoagulant activity in Rattus norvegicus Wistar (rat) diabetic-hyperlipidemic model assessed as decrease in TFa activity in pancreas measuring clotting time at 10.91% administered through feeding measured after 12 weeks (reference value: 27.25 +/- 2.82 secs)", "format": "functional"}, "Rattus norvegicus [4]": {"system": "Rattus norvegicus", "experiment": "Antihyperlipidemic activity in Rattus norvegicus Wistar (rat) diabetic-hyperlipidemic model assessed as serum total cholesterol level at 10.91% administered through feeding measured after 12 weeks ( Rvb = 309 +/- 35.88 mg/dl)", "format": "functional"}, "Rattus norvegicus [5]": {"system": "Rattus norvegicus", "experiment": "Anticoagulant activity in Rattus norvegicus Wistar (rat) diabetic-hyperlipidemic model assessed as decrease in TFa activity in lung measuring clotting time at 10.91% administered through feeding measured after 12 weeks (reference value: 19.25 +/- 3.20 secs)", "format": "functional"}, "Rattus norvegicus [6]": {"system": "Rattus norvegicus", "experiment": "Anticoagulant activity in Rattus norvegicus Wistar (rat) diabetic-hyperlipidemic model assessed as decrease in TFa activity in heart measuring clotting time at 10.91% administered through feeding measured after 12 weeks (reference value: 27.13 +/- 3.72 secs)", "format": "functional"}, "Rattus norvegicus [7]": {"system": "Rattus norvegicus", "experiment": "Toxicity in Rattus norvegicus Wistar (rat) diabetic-hyperlipidemic model assessed as change in body weight at 10.91% administered through feeding measured for 12 weeks ( Rvb = 290 +/-76 g)", "format": "organism-based", "conditions": "in vivo, po, 2016 h"}, "Rattus norvegicus [8]": {"system": "Rattus norvegicus", "experiment": "Anticoagulant activity in Rattus norvegicus Wistar (rat) diabetic-hyperlipidemic model assessed as decrease in TFa activity in spleen measuring clotting time at 10.91% administered through feeding measured after 12 weeks (reference value: 69.63 +/- 1.77 secs)", "format": "functional"}, "Rattus norvegicus [9]": {"system": "Rattus norvegicus", "experiment": "Antihyperlipidemic activity in Rattus norvegicus Wistar (rat) diabetic-hyperlipidemic model assessed as serum HDL-cholesterol level at 10.91% administered through feeding measured after 12 weeks ( Rvb = 22.80 +/- 2.41 mg/dl)", "format": "functional"}, "Rattus norvegicus [10]": {"system": "Rattus norvegicus", "experiment": "Anticoagulant activity in Rattus norvegicus Wistar (rat) diabetic-hyperlipidemic model assessed as fibrinogen level at 10.91% administered through feeding measured after 12 weeks (reference value: 2.13 +/- 0.23 g/l)", "format": "functional"}, "Rattus norvegicus [11]": {"system": "Rattus norvegicus", "experiment": "Increase in blood GSH level in Rattus norvegicus Wistar (rat) diabetic-hyperlipidemic model at 10.91% administered through feeding measured after 12 weeks (reference value: 20.31 +/- 0.93 %mg)", "format": "functional"}, "Rattus norvegicus [12]": {"system": "Rattus norvegicus", "experiment": "Anticoagulant activity in Rattus norvegicus Wistar (rat) diabetic-hyperlipidemic model assessed as activated partial thromboplastin time at 10.91% administered through feeding measured after 12 weeks (reference value: 17.13 +/- 1.73 secs)", "format": "functional"}, "Rattus norvegicus [13]": {"system": "Rattus norvegicus", "experiment": "Anticoagulant activity in Rattus norvegicus Wistar (rat) diabetic-hyperlipidemic model assessed as decrease in TFa activity in brain measuring clotting time at 10.91% administered through feeding measured after 12 weeks (reference value: 50.5 +/- 1.77 secs)", "format": "functional"}, "Rattus norvegicus [14]": {"system": "Rattus norvegicus", "experiment": "Anticoagulant activity in Rattus norvegicus Wistar (rat) diabetic-hyperlipidemic model assessed as decrease in TFa activity in kidney measuring clotting time at 10.91% administered through feeding measured after 12 weeks (reference value: 52.38 +/- 2 secs)", "format": "functional"}, "Rattus norvegicus [15]": {"system": "Rattus norvegicus", "experiment": "Antioxidant activity in Rattus norvegicus Wistar (rat) diabetic-hyperlipidemic model assessed as serum malondialdehyde level at 10.91% administered through feeding measured after 12 weeks by TBARS assay (reference value: 5.78 +/- 0.08 nmol/ml)", "format": "functional"}, "Rattus norvegicus [16]": {"system": "Rattus norvegicus", "experiment": "Anticoagulant activity in Rattus norvegicus Wistar (rat) diabetic-hyperlipidemic model assessed as decrease in TFa activity in aorta measuring clotting time at 10.91% administered through feeding measured after 12 weeks (reference value: 36.25 +/- 1.39 secs)", "format": "functional"}, "Rattus norvegicus [17]": {"system": "Rattus norvegicus", "experiment": "Anticoagulant activity in Rattus norvegicus Wistar (rat) diabetic-hyperlipidemic model assessed as decrease in TFa activity in liver measuring clotting time at 10.91% administered through feeding measured after 12 weeks (reference value: 74.38 +/- 4.60 secs)", "format": "functional"}, "Rattus norvegicus [18]": {"system": "Rattus norvegicus", "experiment": "Antihyperlipidemic activity in Rattus norvegicus Wistar (rat) diabetic-hyperlipidemic model assessed as serum LDL-cholesterol level at 10.91% administered through feeding measured after 12 weeks ( Rvb = 74.25 +/- 9.36 mg/dl)", "format": "functional"}, "Rattus norvegicus [19]": {"system": "Rattus norvegicus", "experiment": "Antihyperlipidemic activity in Rattus norvegicus Wistar (rat) diabetic-hyperlipidemic model assessed as serum triglyceride level at 10.91% administered through feeding measured after 12 weeks ( Rvb = 86.45 +/- 5.7 mg/dl)", "format": "functional"}, "Rattus norvegicus [20]": {"system": "Rattus norvegicus", "experiment": "Antidiabetic activity in Rattus norvegicus Wistar (rat) diabetic-hyperlipidemic model assessed as serum glucose level at 10.91% administered through feeding measured after 12 weeks ( Rvb = 194.4 +/- 23.99 mg/dl)", "format": "functional"}},
  "data": [
    {"smiles": "CCCCCCCC/C=C\\CCCCCCCC(=O)O", "note": "[OLEIC ACID]", "values": [
      {"measurement": "Activity", "setting": "Rattus norvegicus [1]", "result": 773.75, "unit": "mg/dL"},
      {"measurement": "PT", "setting": "Rattus norvegicus [2]", "result": 15.1, "unit": "s"},
      {"measurement": "Time", "setting": "Rattus norvegicus [3]", "result": 28.5, "unit": "s"},
      {"measurement": "Activity", "setting": "Rattus norvegicus [4]", "result": 351.3, "unit": "mg/dL"},
      {"measurement": "Time", "setting": "Rattus norvegicus [5]", "result": 20.38, "unit": "s"},
      {"measurement": "Time", "setting": "Rattus norvegicus [6]", "result": 28.25, "unit": "s"},
      {"measurement": "Activity", "setting": "Rattus norvegicus [7]", "result": 243, "unit": "g"},
      {"measurement": "Time", "setting": "Rattus norvegicus [8]", "result": 62.25, "unit": "s"},
      {"measurement": "Activity", "setting": "Rattus norvegicus [9]", "result": 25.53, "unit": "mg/dL"},
      {"measurement": "Activity", "setting": "Rattus norvegicus [10]", "result": 1.97, "unit": "g/L"},
      {"measurement": "Activity", "setting": "Rattus norvegicus [11]", "result": 29.96, "unit": "%mg"},
      {"measurement": "APTT", "setting": "Rattus norvegicus [12]", "result": 17.88, "unit": "s"},
      {"measurement": "Time", "setting": "Rattus norvegicus [13]", "result": 60.13, "unit": "s"},
      {"measurement": "Time", "setting": "Rattus norvegicus [14]", "result": 65.13, "unit": "s"},
      {"measurement": "Activity", "setting": "Rattus norvegicus [15]", "result": 5.81, "unit": "nmol/mL"},
      {"measurement": "Time", "setting": "Rattus norvegicus [16]", "result": 33.5, "unit": "s"},
      {"measurement": "Time", "setting": "Rattus norvegicus [17]", "result": 77.25, "unit": "s"},
      {"measurement": "Activity", "setting": "Rattus norvegicus [18]", "result": 74.63, "unit": "mg/dL"},
      {"measurement": "Activity", "setting": "Rattus norvegicus [19]", "result": 71.68, "unit": "mg/dL"},
      {"measurement": "Activity", "setting": "Rattus norvegicus [20]", "result": 190.63, "unit": "mg/dL"}
    ]}
  ]
}
